Experimental data as given in patent US9957251B2 (Takeda Pharmaceutical Company Limited, priority 2014, dated 2018).

Legend:
CDK8/CycC = target: T1, CDK8/CycC (Homo sapiens, UniProt P49336); test: CDK8 inhibitory activity (TR-FRET, Kinase Tracer-236 displacement); type: binding; settings: 1 μM of the test compound; read-out: Percent inhibition of CDK8 activity (%)
T1 construct: purchased Carna Biosciences
Summary of the method: (§1)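 Binding assay measuring displacement of Kinase Tracer-236 (60 nM in the added mix) by compound, using Eu-cryptate anti-GST antibody with CDK8/CycC (84 ng/mL) or CDC2L6/CycC (87 ng/mL) solutions. After 1 h at room temperature, TR-FRET read at 615 and 665 nm (excitation 320 nm).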

CDK19 (CDC2L6/CycC) = target: T2, CDK19 (CDC2L6/CycC) (Homo sapiens, UniProt Q9BWU1); test: CDK19 inhibitory activity (TR-FRET, Kinase Tracer-236 displacement); type: binding; settings: 1 μM of the test compound; read-out: Percent inhibition of CDK19 activity (%)
T2 construct: purchased Carna Biosciences
Summary of the method: as §1

[1] = tested on: human multiple myeloma RPMI8226 cells; test: Inhibitory activity against human multiple myeloma RPMI8226 cell growth (CellTiter-Glo); type: cell-based; settings: Homo sapiens, RPMI-8226, 192 h, 1 μM of the test compound, cultured for 8 days; read-out: Percent inhibition of RPMI8226 cell growth (%)
Summary of the method: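 RPMI8226 cells (300/well) cultured 1 day at 37 °C, 5% CO2, then given compound at 1 μM for 8 days. ATP luminescence (CellTiter-Glo) read; percent inhibition relative to 0.1% DMSO wells.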

[2] = tested on: SW480 human colorectal cancer cells; test: Antitumor efficacy in mice bearing SW480 human colorectal cancer xenograft; type: in vivo, BALB/c female nude mice; settings: Mus musculus, SW480, 336 h, oral, 1 dose per day, 14 days, percent tumor growth relative to control group, read-out: T/C (%)
Protocol: The compound of the present invention was evaluated for its antitumor efficacy in mice bearing cancer derived from SW480 human colorectal cancer cells by the following method.
SW480 human colorectal cancer cells were transplanted into 6- to 7-week-old BALB/c female nude mice (CLEA Japan) by subcutaneous injection of 2.0×10^6 cells per mouse. At 7 to 14 days after the transplantation, the size of the engrafted tumor was measured, and the tumor volume was calculated according to the following formula. Tumor volume=major axis×minor axis×minor axis×(½)
Test subjects having an engrafted tumor with a tumor volume of approximately 100 mm^3 were selected and used in the experiment (6 subjects per group). A suspension of each test compound in a 0.5% methylcellulose solution (Wako Pure Chemical Industries) was orally administered to the mice for 14 days at the dose (mg/kg body weight, indicating the amount per dose) and the number of doses shown in Table 4. On the day before the start of the administration and the day before the completion of the administration, the tumor size was measured, and the tumor volume was calculated.
Percent tumor growth (T/C (%)) of the test compound administration group relative to the control administration group was calculated according to the following formula. T/C(%)=(tumor volume of the test compound administration group after the completion of the administration−tumor volume of the test compound administration group at the day before the start of the administration)/(tumor volume of the control administration group after the completion of the administration−tumor volume of the control administration group at the day before the start of the administration))×100

T2 sequence (Q9BWU1 whole entry): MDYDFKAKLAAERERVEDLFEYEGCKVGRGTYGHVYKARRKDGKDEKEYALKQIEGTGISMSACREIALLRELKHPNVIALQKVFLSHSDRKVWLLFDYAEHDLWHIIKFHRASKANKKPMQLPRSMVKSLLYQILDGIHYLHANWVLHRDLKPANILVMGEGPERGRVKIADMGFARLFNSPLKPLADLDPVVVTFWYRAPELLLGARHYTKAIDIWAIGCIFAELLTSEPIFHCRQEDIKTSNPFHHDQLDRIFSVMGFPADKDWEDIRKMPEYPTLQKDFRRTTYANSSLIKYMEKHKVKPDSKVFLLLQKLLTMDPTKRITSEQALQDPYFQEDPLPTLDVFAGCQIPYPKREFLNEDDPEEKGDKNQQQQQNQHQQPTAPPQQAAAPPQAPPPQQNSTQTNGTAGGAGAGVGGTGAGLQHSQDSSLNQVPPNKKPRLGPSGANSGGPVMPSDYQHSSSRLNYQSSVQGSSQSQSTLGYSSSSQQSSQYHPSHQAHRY
T2 sequence (P24863 whole entry partner): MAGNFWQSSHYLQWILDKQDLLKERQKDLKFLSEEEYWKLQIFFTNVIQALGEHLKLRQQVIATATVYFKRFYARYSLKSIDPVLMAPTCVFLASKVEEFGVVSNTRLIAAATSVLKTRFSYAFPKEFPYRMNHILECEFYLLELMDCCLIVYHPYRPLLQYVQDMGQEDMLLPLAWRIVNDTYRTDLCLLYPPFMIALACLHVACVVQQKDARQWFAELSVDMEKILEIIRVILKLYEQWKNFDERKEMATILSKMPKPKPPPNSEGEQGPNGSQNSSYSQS
T1 sequence (P49336 whole entry): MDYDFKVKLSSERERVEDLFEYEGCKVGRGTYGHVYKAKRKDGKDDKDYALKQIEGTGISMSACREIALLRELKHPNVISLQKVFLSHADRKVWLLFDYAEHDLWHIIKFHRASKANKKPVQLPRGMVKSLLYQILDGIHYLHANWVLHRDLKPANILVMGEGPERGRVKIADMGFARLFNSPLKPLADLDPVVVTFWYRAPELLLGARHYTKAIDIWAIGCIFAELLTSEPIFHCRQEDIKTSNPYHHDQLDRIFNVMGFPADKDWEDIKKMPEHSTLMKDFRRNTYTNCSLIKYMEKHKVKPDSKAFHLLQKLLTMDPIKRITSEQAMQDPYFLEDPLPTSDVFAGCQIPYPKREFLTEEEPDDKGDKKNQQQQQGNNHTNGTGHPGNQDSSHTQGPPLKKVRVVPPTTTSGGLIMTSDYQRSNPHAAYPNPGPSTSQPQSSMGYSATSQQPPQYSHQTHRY
T1 sequence (P24863 whole entry partner): as the sequence (P24863 whole entry partner) above

Row | Structure (SMILES) | inhibition at 1 µM (CDK8/CycC) | inhibition at 1 µM (CDK19 (CDC2L6/CycC)) | inhibition at 1 µM [1] | response vs control in vivo at 50 mg/kg [2] | response vs control in vivo at 30 mg/kg ([2]; 30 mg/kg)
1 | O=C(/C=C/c1cncc(F)c1-c1cnn(C2CC2)c1)Nc1ccc(CN2CCOCC2)cc1F [Example 273, (2E)-3-(4-(1-Cyclopropyl-1H-pyrazol-4-yl)-5-fluoropyridin-3-yl)-N-(2-fluoro-4-(morpholin-4-ylmethyl)phenyl)acrylamide] | 101% | 96% | 64% | 36% | –
2 | O=C(/C=C/c1cnccc1-c1cnn(C2CC2)c1)Nc1ccc(CN2CCOCC2)cc1 [Example 97, (2E)-3-(4-(1-Cyclopropyl-1H-pyrazol-4-yl)pyridin-3-yl)-N-(4-(morpholin-4-ylmethyl)phenyl)acrylamide] | 92% | 102% | 53% | 37% | –
3 | O=C(/C=C/c1cnccc1-c1cnn(C2CC2)c1)Nc1ccc(CN2CCOCC2)cc1F [Example 194, (2E)-3-(4-(1-Cyclopropyl-1H-pyrazol-4-yl)pyridin-3-yl)-N-(2-fluoro-4-(morpholin-4-ylmethyl)phenyl)acrylamide] | 99% | 99% | 53% | 36% | –
4 | O=C(/C=C/c1cnccc1-c1cnn(C2CC2)c1)Nc1ccc(CN2CC(F)(F)C2)cc1 [Example 309, (2E)-3-(4-(1-Cyclopropyl-1H-pyrazol-4-yl)pyridin-3-yl)-N-(4-((3,3-difluoroazetidin-1-yl)methyl)phenyl)acrylamide] | 105% | 101% | 58% | – | 51%
